Test results from patent US7045145B1, “Transdermal contraceptive delivery system and process” (Agile Therapeutics, Inc., priority 1999, dated 2006).

Assay: clinical
Details: female, human, in vivo
Description: Serum level of levonorgestrel (LNG), ethinyl estradiol (EE) as well as luteinizing hormone (LH), progesterone (P) and estradiol (E2) were analyzed by radio-immunassay methods.
The total duration of study for each subject participating in this study is 5 months. It consists of one base-line period followed by three treatment periods and one recovery period. Each period is one menstrual cycle of the person subjects.
Subjects attending this 5 month-long study were randomly divided and sequentially admitted into three study groups. Group A, B and C subjects received one piece of 7.5 cm^2, 10.0 cm^2 and 12.5 cm^2 TCDS patch weekly, respectively, for three consecutive weeks I each of the three treatment periods. During the baseline and recovery periods, all the subjects received only the placebo patch of the corresponding size for three consecutive weeks. During the fourth week of each study period, no patch was worn by the subjects in any treatment groups.
According to the blood sampling schedule, a total of 57 blood samples (about 10 ml per sample) were taken from each subject during the 5-month study. During the three treatment cycles, 15 samples were taken through out the 21 days of patch wearing period. At the end of the third treatment cycle, 5 additional blood samples were taken during the 24 hours post patch removal which allows the elimination pharmacokinetics of drugs to be studied. […]

## C#C[C@]1(O)CC[C@H]2[C@@H]3CCC4=CC(=O)CC[C@@H]4[C@H]3CC[C@@]21CC [levonorgestrel]
  Cmax: > 2 ng/mL
  serum levels compared with the level considered necessary for effective contraception in women: exceeded the level (200–600 pg/ml)
